# Patent publication US20070140978A1, “Adrenergic complement inhaler” (priority 2004, published 2007)
# Tested on: child with severe nasal congestion due to a cold
# Test: Severe nasal congestion due to a cold, child
# Format: in vivo, human
# Conditions: every four hours
# From the text: A child presents with severe nasal congestion due to a cold. […] The child then supplements the oral medication by using the composition of this Example, one spray into each nostril, following each dose of the oral medication.
smiles,measurement,value
CN[C@@H](C)[C@@H](O)c1ccccc1 [pseudophedrine],"relief of nasal congestion, oral medication alone",limited relief
